The structures appear in SMILES notation. Activity calls are given as the source filed them.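 Rule for the calls: active = EC50 no more than a set limit of log units above the highest dose; inactive = the rest.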 A value given as a limit tells only on which side of the number the result lay.

In the test the target is S. pyogenes SKKanGAS, kanamycin survival, BacTiterGlo, 6 h. Kind of test: S. pyogenes SKKanGAS kanamycin growth inhibitors – SKKanGAS strain, luminescence, dose confirmation, streptokinase promoter inhibitor project, dose response (AID 1902).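 Note: lower survival reflects blocked streptokinase promoter driving kanamycin resistance gene.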
On to `CC(C)[C@H](NC(=O)N1CC(=O)Nc2ccccc21)C(=O)N[C@@H](Cc1ccccc1)C(=O)O`, for which the EC50 is > 15 µM (inactive).
Regarding `Oc1ccccc1N=Nc1nc(-c2ccccc2)c(-c2ccccc2)[nH]1`, the half-maximal effective concentration (EC50) is 0.303 µM.
Take `CCC1CCCCN1c1cc(C)nc2cc(-c3cccc(C)c3)nn12` (stereo not given): the EC50 was 6.59 µM.
As to `O=Nc1c(O)c2ccccc2c2ccccc12`, the EC50 is 2.34 µM.
For `CC(C)n1cnc2c(NCc3ccccc3)nc(NCc3ccccc3)nc21`, the 50% effective concentration (EC50) is 3.06 µM.
Regarding `Cc1nc(NC(=O)c2ccc(Cl)cc2)sc1-c1csc(Nc2cccc(F)c2)n1`, the 50% effective concentration (EC50) is 2.69 µM.
The same measure for `O=C(N/N=C/c1cc(Cl)cc([N+](=O)[O-])c1O)c1ccccc1NS(=O)(=O)c1cccs1`: 12 µM.
For the compound `Oc1ccc(Br)cc1/C=N/Nc1ncc(-c2ccccc2)cn1`, the EC50 is 1.7 µM.
As to `Cc1csc(NC(=O)c2c(O)c3c(n(CC(C)C)c2=O)CCCC3)n1`, the EC50 is 10.9 µM.
Turning to `CCOC(=O)c1c(-c2ccc(C)o2)csc1NC(=O)COC(=O)c1ccc(NC(N)=O)cc1`, the half-maximal effective concentration (EC50) was 2.53 µM.
`Nc1nc(NC(=O)/C=C/c2ccc(F)cc2)nn1-c1ccccc1`: the concentration for a half-maximal effect (EC50) was 2.62 µM.
For `Cc1ccc(C2Oc3ccccc3C3=C2C(c2cccs2)n2ncnc2N3)cc1` (stereo not given), the EC50 is 3.76 µM.
Under `O=C(OCc1csc(Nc2ccccc2)n1)c1ccc(Cl)cc1` stands 14.3 µM.
Under `Cc1nc(Nc2nc(-c3ccccc3)cc(=O)[nH]2)nc2ccccc12` stands 5.67 µM; under `O=C1c2ccccc2CC1(Cc1ccccc1)Cc1ccccc1`, 4.35 µM; under `CCOC(=O)c1c(NC(=O)CCS(=O)(=O)c2ccccc2)sc2c1CCN(C)C2`, > 15 µM (inactive).
In the case of `O=C(Cc1ccc(Br)cc1)Nc1nc2ccccc2[nH]1`, the EC50 was 4.55 µM.
Take `COc1ccc(C2CC(c3ccccc3)=NN2C(=O)c2cccs2)cc1` (stereo not given): the EC50 was 7.84 µM.
In the case of `O=C(O)C(c1ccccc1)N1C(=O)/C(=C\c2ccc(-c3cccc(Cl)c3)o2)SC1=S` (stereo not given), the EC50 is 1.94 µM.
With `CCCCCc1ccc(OCCOCCn2c[n+](C)c3ccccc32)c(CCCCC)c1`, the EC50 is 5.79 µM.
Under `Cc1ccccc1N1CCN(C(=O)CCN2C(=O)c3ccccc3C2=O)CC1` stands > 15 µM (inactive); under `Nc1[nH]n2c(=O)c3c(nc2c1N=Nc1ccc(Cl)cc1)CCCC3`, 6.13 µM.
Regarding `Cc1ccccc1OCC(=O)Nc1ccccc1N1CCC(C)CC1`, the EC50 is 7.48 µM.
Consider `CCOC(=O)c1cnc(-n2nc(C)cc2C)nc1NC1CCCCC1`, for which the EC50 was less than 0.06 µM.
Take `CCc1ccccc1OCC(=O)Nc1nc(-c2cccnc2)cs1`: the EC50 is 1.05 µM.
Under `Cc1cc2nc(CSc3ccccc3)cc(=O)n2[nH]1` stands 3.82 µM; under `O=C1CCSc2ccc(Cl)cc2N1Cc1ccc(Cl)cc1`, 3.93 µM.
Under `Nc1nonc1-n1nnc(C(=O)N/N=C/c2cc(Cl)ccc2O)c1CN1CCCCCC1` stands 5.76 µM; under `Cc1ccc2nc(N3C(=O)CNC3=S)sc2c1`, 4.32 µM; under `O=C(Cc1ccc([N+](=O)[O-])cc1)N/N=C/c1ccc([N+](=O)[O-])o1`, 9.86 µM.
For `Cc1ccsc1C(=O)N(c1nc2ccccc2s1)c1c(C)cccc1C`, the concentration for a half-maximal effect (EC50) was 4 µM.
The same measure for `CN1C(=O)/C(=C/c2ccccc2F)Sc2ccc(C(=O)NCC3CCCO3)cc21` (stereo not given): 1.53 µM.
On to `CCCCCCCCCCCCn1ccc(=N)cc1`, for which the EC50 is 4.1 µM.
`CCc1ccc2nc(N3C(=O)C(O)=C(C(=O)c4ccco4)C3c3cccs3)sc2c1` (stereo not given): the EC50 is 1.88 µM.
The same measure for `O=c1ccc(N=Nc2ccccc2)ccc1O`: 3.51 µM; for `C/C(=N/NS(=O)(=O)c1ccc(Cl)cc1)c1cccc(NC(=O)c2ccc(Cl)cc2Cl)c1`: 4.79 µM; for `CC(C)(C)OC(=O)[C@H](Cc1ccccc1)NC(=O)c1[nH]cnc1C(=O)Nc1cccc(Cl)c1`: 2.4 µM.
Take `CC(=O)c1cccc2c(O)c(C3=Nc4ccccc4C3=O)[nH]c12`: the EC50 was 6.32 µM.
For the compound `Cc1cccc(-n2ncc3c2CCCC3NC(=O)CCN2Cc3ccccc3C2=O)c1C` (stereo not given), the EC50 is > 15 µM (inactive).
Under `N#C/C(=N\Nc1ccc(S(=O)(=O)N2CCOCC2)cc1)C(N)=S` stands > 15 µM (inactive).
The same measure for `Cc1oc(-c2cc(Cl)cc(Cl)c2)cc1C(=O)NCCc1ccccc1`: 11.7 µM; for `CC(C)(C)c1ccc(OCC(=O)NNC(=S)NC(=O)c2ccco2)c(Br)c1`: less than 0.06 µM.
The same measure for `CC(C)=CCOc1ccc([C@@H]2COc3c(ccc4c3C=CC(C)(C)O4)C2)c(O)c1`: 1.83 µM.
For the compound `Brc1ccccc1C1Nc2cccc3cccc(c23)N1`, the EC50 is 5.03 µM.
Regarding `O=C(N/N=C/c1ccccc1O)c1ccc2c(c1)OCO2`, the EC50 was 2.76 µM.
Take `COc1ccc2nc(N3C(=O)CNC3=S)sc2c1`: the EC50 was 2.89 µM.
As for `COC(=O)c1c(C)[nH]c(C(=O)OCC(=O)N(CC(C)C)c2c(N)n(Cc3ccccc3)c(=O)[nH]c2=O)c1C`, the EC50 was 9.34 µM.
As for `COc1cc(OC)c([C@H]2C=C(C)[C@H]3C[C@@H]2C3(C)C)c(OC)c1`, the concentration for a half-maximal effect (EC50) is 2.6 µM.
Turning to `COc1cc2ccccc2cc1C(=O)Nc1ccc(NC(=O)c2cccs2)cc1`, the EC50 is 6.02 µM.
The same measure for `O=c1cc(N2CCCCC2)c(-c2ccccc2)nn1Cc1c(Cl)cccc1Cl`: 4.69 µM.
With `Cc1nnc(-c2cccc(Br)c2)c2cn(-c3ccc(Br)cc3)nc12`, the EC50 is 3.07 µM.
With `OC(COCC(F)(F)C(F)(F)C(F)(F)C(F)F)Cn1c2ccc(Cl)cc2c2cc(Cl)ccc21` (stereo not given), the EC50 is 2.16 µM.
Consider `CCCCC(=O)NC(c1ccco1)c1cc(Cl)c2cccnc2c1O` (stereo not given), for which the EC50 is 2.03 µM.
As to `CC(=O)c1ccc(NC(=S)Nc2ccc(Br)c(Cl)c2)cc1`, the EC50 was 6.2 µM.
`CN(C)c1ccc(O)c2c1CC1CC3[C@@H](N(C)C)C(=O)C(C(N)=O)=C(O)[C@]3(O)C(=O)C1=C2O` (stereo not given in full): the EC50 was 0.095 µM.
For `CCCCC(=O)NNC(=S)NC(=O)C(c1ccccc1)c1ccccc1`, the EC50 was 0.188 µM.
For the compound `O=[N+]([O-])c1ccc(O)c(/C=N/Nc2ccc(Cl)nn2)c1`, the EC50 was 0.252 µM.
Take `Cc1nn(-c2ccccc2)c(Cl)c1C1C(C#N)=C(N)OC2=C1C(=O)CCC2` (stereo not given): the EC50 is 1.25 µM.
For `COc1cc(/C=N/Nc2nc(Nc3ccccc3)nc(-n3nc(C)cc3C)n2)cc(OC)c1OC`, the EC50 is 3.14 µM.
The same measure for `Cc1cc(N2CCC(C)CC2)nc(-n2nc(C)cc2C)n1`: 7.73 µM; for `COCCSc1ccccc1C(=O)N1CCCC(C)C1` (stereo not given): > 15 µM (inactive).
Regarding `CCn1c(=O)c(C(=O)Nc2nc3ccccc3[nH]2)c(O)c2ccccc21`, the EC50 was 1.03 µM.
For `Cc1ccc(/C=C/C(=O)c2ccccc(=O)c2O)cc1C`, the EC50 is 4.04 µM.
Under `CC(C)/C(=N/Nc1ccccc1[N+](=O)[O-])c1ccccc1` stands 6.51 µM; under `CC1(C)Cc2c(cnn2-c2ccccc2)C(NC(=O)CCCN2CCCC2=O)C1` (stereo not given), > 15 µM (inactive); under `COC(=O)/C=C1\SC(=Nc2ccc(Cl)c(Cl)c2)NC1=O`, 8.93 µM.
On to `COc1ccc(-c2cc3ncnc(Cl)c3s2)cc1`, for which the EC50 is 7.15 µM.
Regarding `CCCCNC(=O)c1sc(=S)n2c1[nH]c(=O)c1ccccc12`, the EC50 is 9.08 µM.
The same measure for `Cc1ccc(Oc2ccc3c(c2)C(=O)N(c2ccc(S(=O)(=O)Nc4nccs4)cc2)C3=O)cc1`: 3.06 µM; for `Cc1cc2occ(CC(=O)NC3=NCCS3)c2cc1C(C)C`: 4.35 µM; for `O=S(=O)(Nc1ccc(O)c(Sc2nc3ccccc3s2)c1)c1cccc2ccccc12`: 3.09 µM.
The same measure for `S=c1nc(SCc2ccccc2)[nH]c2ccccc12`: 3.19 µM; for `O=C(NCC1(N2CCCCC2)CCCCC1)c1cccc(NS(=O)(=O)c2ccccc2)c1`: > 15 µM (inactive); for `CCCSc1nsc(NC(=O)Nc2ccc(F)cc2F)n1`: 5.66 µM.
Under `CC1=C/C(=N\NC(=S)NCCc2ccccc2)CC(C)(C)C1` stands 2.58 µM; under `COc1ccc2ncc(S(=O)(=O)c3ccccc3)c(N3CCN(c4ccccc4)CC3)c2c1`, 3.19 µM; under `Cn1ncc(Cl)c1C(=O)N1CCC2(CC1)OCCO2`, > 15 µM (inactive).
On to `COc1ccc(NC(=O)c2c[nH]n3c(=O)cc(C4CCN(C(=O)OC(C)(C)C)CC4)nc23)cc1Cl`, for which the EC50 was 3.8 µM.
As to `Cn1c(=O)c(NCCc2ccccc2)c2c3c(cccc31)C(=O)c1ccccc1-2`, the EC50 is 8.86 µM.
Regarding `Cc1ccc(C2(c3ccc(C)cc3)CC2C(=O)Nc2ccc([N+](=O)[O-])cc2O)cc1` (stereo not given), the EC50 is 2.15 µM.
The same measure for `CCCCCc1ccc(OCCCC[n+]2ccccc2)c(CCCCC)c1`: 7.07 µM; for `Cc1c(Cl)c(C(F)F)nn1CC(=O)NC1C(=O)N2C(C(=O)O)=C(CSc3nnnn3C)CSC12` (stereo not given): less than 0.06 µM; for `Cc1ccc(C[n+]2c(-c3ccc(C)cc3)cc(-c3ccc(C)cc3)cc2-c2ccc(C)cc2)cc1`: 4.06 µM.
The same measure for `CCC(CO)Nc1ncnc2c1cnn2-c1ccc(OC)cc1` (stereo not given): > 15 µM (inactive); for `O=c1c2ccccc2c(C=Nc2ccc(O)cc2)c(O)n1Cc1ccccc1`: 6.21 µM; for `O=C(Nc1ccc(Br)c(C(F)(F)F)c1)c1ccc(C(F)(F)F)cc1`: 1.86 µM.
For the compound `O=C(Nc1cccc(-c2nnc(-c3ccccc3)o2)c1)c1ccc(Br)o1`, the half-maximal effective concentration (EC50) was 8.48 µM.
Consider `COc1ccc(N=Nc2cc(-c3ccccc3)ccc2O)cc1`, for which the EC50 was 13.1 µM.
Regarding `Cc1cccc(NC(=O)c2nc[nH]c2C(=O)N[C@@H](Cc2ccccc2)C(=O)OC(C)(C)C)c1`, the EC50 is 1.44 µM.
On to `COC(=O)c1c(NC(=O)c2ccc([N+](=O)[O-])o2)sc2c1CCN(C(C)C)C2`, for which the EC50 was 4 µM.
As for `CCOC(=O)N1CCN(C(=O)c2ccc3c(c2)N(C)C(=O)/C(=C\c2ccc(OCC)c(OC)c2)S3)CC1`, the EC50 is 0.593 µM.
As to `Cc1ccc2cc(CN(Cc3cccs3)C(=O)c3ccco3)c3nnnn3c2c1C`, the EC50 is 4.71 µM.
As for `O=C(O)CCCNc1cc(N2CCN(C(=O)c3ccco3)CC2)c2noc3c2c1C(=O)c1ccccc1-3`, the EC50 is 6.02 µM.
The same measure for `O=C(CN1C(=O)S/C(=C\C=C\c2ccccc2)C1=O)Nc1ccccc1C(=O)O`: 5.62 µM; for `COc1cccc(-c2cc(C(=O)NCC3CCCO3)c3cc(Br)cc(C)c3n2)c1` (stereo not given): > 15 µM (inactive).

As a reminder, the EC50 is the midpoint of the concentration-response curve.
